Reference: US7605155B2, “Substituted pyrazolo[1,5-a]pyrimidines as protein kinase inhibitors” (priority 2002, dated 2009)

Biological target: CDK2 (either cyclin A or E-dependent) (Homo sapiens, UniProt P24941)
Assay: biochemical
Excerpt: BACULOVIRUS CONSTRUCTIONS: Cyclins A and E were cloned into pFASTBAC (Invitrogen) by PCR, with the addition of a GluTAG sequence (EYMPME) at the amino-terminal end to allow purification on anti-GluTAG affinity columns. […] CDK2 was also cloned into pFASTBAC by PCR, with the addition of a haemaglutinin epitope tag at the carboxy-terminal end ([…]).
ENZYME PRODUCTION: Recombinant baculoviruses expressing cyclins A, E and CDK2 were infected into SF9 cells at a multiplicity of infection (MOI) of 5, for 48 hrs. Cells were harvested by centrifugation at 1000 RPM for 10 minutes. Cyclin-containing (E or A) pellets were combined with CDK2 containing cell pellets and lysed on ice for 30 minutes in five times the pellet volume of lysis buffer containing 50 mM Tris pH 8.0, 0.5% NP40, 1 mM DTT and protease/phosphatase inhibitors (Roche Diagnostics GmbH, Mannheim, Germany). Mixtures were stirred for 30-60 minutes to promote cyclin-CDK2 complex formation. Mixed lysates were then spun down at 15000 RPM for 10 minutes and the supernatant retained. 5 ml of anti-GluTAG beads (for one liter of SF9 cells) were then used to capture cyclin-CDK2 complexes. Bound beads were washed three times in lysis buffer. Proteins were competitively eluted with lysis buffer containing 100-200 ug/mL of the GluTAG peptide. Eluate was dialyzed overnight in 2 liters of kinase buffer containing 50 mM Tris pH 8.0, 1 mM DTT, 10 mM MgCl2, 100 uM sodium orthovanadate and 20% glycerol. Enzyme was stored in aliquots at −70° C.
IN VITRO KINASE ASSAY: CDK2 kinase assays (either cyclin A or E-dependent) were performed in low protein binding 96-well plates (Corning Inc, Corning, N.Y.). Enzyme was diluted to a final concentration of 50 μg/ml in kinase buffer containing 50 mM Tris pH 8.0, 10 mM MgCl2, 1 mM DTT, and 0.1 mM sodium orthovanadate. The substrate used in these reactions was a biotinylated peptide derived from Histone H1 (from Amersham, UK). The substrate was thawed on ice and diluted to 2 μM in kinase buffer. Compounds were diluted in 10% DMSO to desirable concentrations. For each kinase reaction, 20 μl of the 50 μg/ml enzyme solution (1 μg of enzyme) and 20 μl of the […] substrate solution were mixed, then combined with 10 μl of diluted compound in each well for testing. […] The reaction was allowed to run for 1 hour at room temperature. The reaction was stopped by adding 200 μl of stop buffer containing 0.1% Triton X-100, 1 mM ATP, 5 mM EDTA, and 5 mg/ml streptavidine coated SPA beads (from Amersham, UK) for 15 minutes. The SPA beads were then captured onto a 96-well GF/B filter plate (Packard/Perkin Elmer Life Sciences) using a Filtermate universal harvester (Packard/Perkin Elmer Life Sciences.). Non-specific signals were eliminated by washing the beads twice with 2M NaCl then twice with 2 M NaCl with 1% phosphoric acid. The radioactive signal was then measured using a TopCount 96 well liquid scintillation counter (from Packard/Perkin Elmer Life Sciences).
IC50 DETERMINATION: Dose-response curves were plotted from inhibition data generated, each in duplicate, from 8 point serial dilutions of inhibitory compounds. Concentration of compound was plotted against % kinase activity, calculated by CPM of treated samples divided by CPM of untreated samples. To generate IC50 values, the dose-response curves were then fitted to a standard sigmoidal curve and IC50 values were derived by nonlinear regression analysis. These kinase activities were generated by using cyclin A or cyclin E using the above-described assay.

`Nc1c(Br)c(C2CCCNC2)nc2c(-c3ccc4c(c3)OCO4)cnn12` (stereo not shown) gave an IC50 of 570 nM.

Work on `Nc1cc(C2CCCNC2)nc2c(-c3cnn(CCO)c3)cnn12` (stereo not shown) yielded an IC50 of 4300 nM.

Work on `CC(C)N1CCNCC(c2nc3c(-c4cnn(C)c4)cnn3c(N)c2Br)C1` (stereo not shown) yielded an IC50 of 2600 nM.

Compound `Cn1cc(-c2cnn3c(NCc4ccccc4)cc(C4CCCNC4)nc23)cn1` (stereo not shown) has an IC50 of 31000 nM.

`N#Cc1cc(-c2cnn3c(N)c(Br)c(C4CCCNC4)nc23)co1` (stereo not shown) gave an IC50 of 140 nM.

For `Cn1cc(-c2cnn3c(N)cc([C@@H]4CC[C@H](N)C4)nc23)cn1`, the IC50 was 3700 nM.

`Nc1c(Br)c(C2CCCNC2)nc2c(-c3cncs3)cnn12` (stereo not shown) showed an IC50 of 96 nM.

With `Nc1cc(C2CCCNC2)nc2c(-c3cn[nH]c3)cnn12` (stereo not shown) the IC50 was 1500 nM.

In the case of `N#CCc1ccc(-c2cnn3c(N)cc(C4CCCNC4)nc23)cc1` (stereo not shown), the IC50 is reported as 12000 nM.

For `Nc1c(Br)c(C2CCCNC2)nc2c(-c3cnccn3)cnn12` (stereo not shown), the IC50 was 4700 nM.

`Nc1cc(C2CCCNC2)nc2c(-c3ncon3)cnn12` (stereo not shown) showed an IC50 of 2500 nM.

`Nc1cc(C2CCCNC2)nc2c(-c3cnoc3)cnn12` (stereo not shown) was tested, and the IC50 was 790 nM.

`Cn1cc(-c2cnn3c(N)c(Br)c(CC4CNCCN4)nc23)cn1` (stereo not shown) showed an IC50 of 5700 nM.

Work on `Cn1cc(-c2cnn3c(N)c(Br)c(N4CC[C@H](N)C4)nc23)cn1` yielded an IC50 of 1200 nM.

`CN(C)C(=O)Cn1cc(-c2cnn3c(N)c(Br)c(C4CCCNC4)nc23)cn1` (stereo not shown) gave an IC50 of 1400 nM.

Compound `N#Cc1cc(-c2cnn3c(N)c(Cl)c(C4CCCNC4)nc23)co1` (stereo not shown) has an IC50 of 210 nM.

Compound `Cn1cc(-c2cnn3c(N)c(Br)c(C4CNCCN(S(C)(=O)=O)C4)nc23)cn1` (stereo not shown) has an IC50 of 3100 nM.

For `Nc1cc(C2CCCNC2)nc2c(-c3cncs3)cnn12` (stereo not shown), the IC50 was 210 nM.

Work on `Cn1cc(-c2cnn3c(N)c(Br)c(C4CNCCNC4)nc23)cn1` yielded an IC50 of 720 nM.

Compound `Cn1cc(-c2cnn3c(N)c(Br)c(CC4CNCCO4)nc23)cn1` (stereo not shown) has an IC50 of 6100 nM.

`Cn1cc(-c2cnn3c(N)c(Br)c([C@@H]4CC[C@H](N)C4)nc23)cn1` gave an IC50 of 240 nM.

`C/C(=N\O)[C@@H]1CC[C@H](c2nc3c(-c4cnn(C)c4)cnn3c(N)c2Br)CN1` was tested, and the IC50 was 520 nM.

`Nc1cc(C2CCCNC2)nc2c(-c3coc(C=NO)c3)cnn12` (stereo not shown) showed an IC50 of 40 nM.

For `Cn1cc(-c2cnn3c(N)c(Br)c(C4CCCCN4)nc23)cn1` (stereo not shown), the IC50 was 28000 nM.

`Cn1cc(-c2cnn3c(N)c(Br)c(CCNCc4ccccc4)nc23)cn1` showed an IC50 of 3700 nM.

`Nc1c(Br)c(C2CCCNC2)nc2c(-c3cnn(CCO)c3)cnn12` (stereo not shown) showed an IC50 of 200 nM.

`Nc1cc(C2CCCNC2)nc2c(-c3cscn3)cnn12` (stereo not shown) was tested, and the IC50 was 10000 nM.

Compound `CC(N)CCc1nc2c(-c3cnn(C)c3)cnn2c(N)c1Br` (stereo not shown) has an IC50 of 1200 nM.

With `Cn1cc(-c2cnn3c(N)c(Br)c(C4CCCN(CCO)C4)nc23)cn1` (stereo not shown) the IC50 was 1750 nM.

`Cn1cc(-c2cnn3c(N)c(I)c(C4CCCNC4)nc23)cn1` (stereo not shown) was tested, and the IC50 was 20 nM.

For `N#Cc1ccc(-c2cnn3c(N)c(Br)c(C4CCCNC4)nc23)cc1` (stereo not shown), the IC50 was 240 nM.

For `CC(C)Cc1ncc(-c2cnn3c(N)cc(C4CCCNC4)nc23)s1` (stereo not shown), the IC50 was 1300 nM.

In the case of `CC(C)n1cc(-c2cnn3c(N)cc(C4CCCNC4)nc23)cn1` (stereo not shown), the IC50 is reported as 8300 nM.

`Cn1cc(-c2cnn3c(N)cc([C@@H]4CC[C@@H](N)C4)nc23)cn1` gave an IC50 of 5600 nM.

Work on `Cn1cc(-c2cnn3c(N)c(Br)c([C@H]4CCC[C@@H](N)C4)nc23)cn1` yielded an IC50 of 440 nM.

`CCNc1c(Br)c(C2CCCNC2)nc2c(-c3cnn(C)c3)cnn12` (stereo not shown) showed an IC50 of 5700 nM.

In the case of `N#Cc1ccc(-c2cnn3c(N)c(Br)c(C4CCCNC4)nc23)cn1` (stereo not shown), the IC50 is reported as 880 nM.

`Cn1cc(-c2cnn3c(NC4CCCC4)cc(C4CCCNC4)nc23)cn1` (stereo not shown) gave an IC50 of 25000 nM.

In the case of `Cn1cc(-c2cnn3c(N)c(Br)c([C@@H]4CC[C@@H](N)C4)nc23)cn1`, the IC50 is reported as 120 nM.

Work on `Cn1cc(-c2cnn3c(N)cc([C@H]4CC[C@@H](CO)NC4)nc23)cn1` yielded an IC50 of 12000 nM.

With `Cn1cc(-c2cnn3c(N)cc(C4(F)CCCNC4)nc23)cn1` (stereo not shown) the IC50 was 6000 nM.

`N#Cc1ccc(-c2cnn3c(N)cc(C4CCCNC4)nc23)cn1` (stereo not shown) was tested, and the IC50 was 2300 nM.

For `N#Cc1cncc(-c2cnn3c(N)c(Br)c(C4CCCNC4)nc23)c1` (stereo not shown), the IC50 was 5800 nM.

Compound `Nc1cc(C2CCCNC2)nc2c(-c3ccc(CO)cc3)cnn12` (stereo not shown) has an IC50 of 1400 nM.

`Nc1c(Br)c(C2CCCNC2)nc2c(-c3cnoc3)cnn12` (stereo not shown) showed an IC50 of 160 nM.

With `CC(=O)N1CCNCC(c2nc3c(-c4cnn(C)c4)cnn3c(N)c2Br)C1` (stereo not shown) the IC50 was 2600 nM.

`Nc1c(Br)c(C2CCCNC2)nc2c(-c3cscn3)cnn12` (stereo not shown) was tested, and the IC50 was 5800 nM.

Work on `CCn1cc(-c2cnn3c(N)c(Br)c(C4CCCNC4)nc23)cn1` (stereo not shown) yielded an IC50 of 410 nM.

With `COC(=O)[C@@H]1CC[C@H](c2cc(N)n3ncc(-c4cnn(C)c4)c3n2)CN1` the IC50 was 14000 nM.
